In patent US5952501A, “Certain tricyclic substituted diazabicylo[3.2.1] octane derivatives” (priority 1995, dated 1999):
Like-named read-outs stand apart in the source and are kept apart here.

Tests used:
stereotypy:hyperactivity = stereotypy:hyperactivity ED50 ratio (typical versus atypical neuroleptic profile); format: in vivo, male Sprague-Dawley rats; conditions: for Ratio: stereotypy:hyperactivity ED50 ratio, greater than ten considered clozapine like atypical; for neuroleptic profile: in words, stereotypy versus hyperactivity models
From the text: The ratios of the ED50 's determined in the assay systems described above are predictive of typical versus atypical profiles for potential neuroleptic candidates.
A compound encompassed within the disclosure of French patent application No. 71.27825 was synthesized and evaluated using the assays described above. This prior art compound is designated Compound A for purposes of comparison and has the formula: [drawing 12]

[1] = tested on: apomorphine-induced stereotypy; test: Antagonism of Apomorphine-Induced Stereotypy; conditions: Rattus norvegicus, sc, 1 h, read-out: ED50 Stereotypy
[2] = tested on: amphetamine-induced hyperactivity; conditions: Rattus norvegicus, sc, 1 h, read-out: ED50 Hyperactivity
[3] = cited from earlier work

SMILES	Ratio (stereotypy:hyperactivity)	ED50 [1]	ED50 [2]	incidence of extrapyramidal side effects ([3]; in vivo)	neuroleptic profile (stereotypy:hyperactivity)	incidence of extrapyramidal side effects ([3]; in words, than classical neuroleptics, background)
CN1CCN([C@@H]2Cc3ccccc3Sc3ccc(Cl)cc32)CC1 [R-Octoclothepin]	4.4	0.18 mg/kg	0.8 mg/kg			
CCN1CCC[C@H]1CNC(=O)c1c(O)c(Cl)cc(Cl)c1OC [Raclopride]	0.92	0.044 mg/kg	0.048 mg/kg			
CCN1CCCC1CNC(=O)c1cc(S(N)(=O)=O)ccc1OC (stereo not shown) [sulpiride]				lesser incidence of extrapyramidal side effects than classical neuroleptics		
CN1C2CCC1CN(C1Cc3cc(Cl)ccc3Oc3ccccc31)C2.O=C(O)/C=C\C(=O)O (stereo not shown) [Compound 1, 3-(2-Chloro-10,11-dihydro-dibenzo[b,f]oxepin-10-yl)-8-methyl-3,8-diazabicyclo(3.2.1)octane monomaleate]	> 48	> 40 mg/kg	0.84 mg/kg			
CN1C2CCC1CN(C1Cc3ccccc3Oc3ccc(Cl)cc31)C2 (stereo not shown) [Prior Art Cpd A]	3.1	0.69 mg/kg	0.22 mg/kg		typical neuroleptic profile which is comparable to conventional neuroleptic agents	
Cc1ccc2c(c1)CC(N1CC3CCC(C1)N3C)c1ccccc1O2.O=C(O)/C=C\C(=O)O (stereo not shown) [Compound 2, 3-(2-Methyl-10,11-dihydro-dibenzo[b,f]oxepin-10-yl)-8-methyl-3,8-diazabicyclo(3.2.1)octane monomaleate]	31	12.7 mg/kg	0.41 mg/kg			
O=C(CCCN1CCC(O)(c2ccc(Cl)cc2)CC1)c1ccc(F)cc1 [Haloperidol]	0.94	0.036 mg/kg	0.038 mg/kg			
CN1CCN(C2=Nc3cc(Cl)ccc3Nc3ccccc32)CC1 [Clozapine]	18	26.9 mg/kg	1.49 mg/kg		clozapine-like atypical antipsychotic profiles	lesser incidence of extrapyramidal side effects than classical neuroleptics
CN1C2CCC1CN(C1Cc3cc(Br)ccc3Oc3ccccc31)C2.O=C(O)/C=C\C(=O)O (stereo not shown) [Compound 3, 3-(2-Bromo-10,11-dihydro-dibenzo[b,f]oxepin-10-yl)-8-methyl-3,8-diazabicyclo(3.2.1)octane monomaleate]	> 10	> 22 mg/kg	2.15 mg/kg			
